Where two headings read alike, the source gives them in different places.
Legend:
[1] = Diuretic activity, acute sodium loaded mouse screening test; format: in vivo, male mice; details: 50 mg/kg oral in 1% saline; for Cl^- / K^+ / Na^+: urine
Procedure: The diuretic activity of the compounds of this invention was assayed by the diuresis screening test referred to as "acute sodium loaded mouse". This test was carried out by the following method.
The acute sodium loaded mouse screening test was carried out by using a 10-membered group of male mice (each weighing 18 to 24 g). Test compounds were incorporated in 1% saline (NaCl) solution and orally administered in a volume of 10 ml/kg. The mice were placed in metabolic cages. Each treated group consisted of 10-members. Five members were placed in one cage. Tests were conducted by oral administrations of (A) 1% saline (NaCl) solution to the control group and (B) 1% saline (NaCl) solution containing a test compound according to this invention.
The determination was carried out for sodium, potassium, and chlorine in each pooled urine sample. The determination of sodium and potassium was carried out by flame photometer. Chlorine was determined by chloride analysis apparatus. The analytical values of sodium, potassium, and chlorine were shown with an average mg equivalent (m Eq)/Kg/5 hours, and the diuretic activity was shown with an average urine volume (ml)/Kg/5 hours.

[2] = Acute toxicity (LD50, Behrens-Karber method); format: in vivo, ICR mice; details: mouse, in vivo, ip, mortality during 30 days
Procedure: Test compounds, dissolved or suspended in 0.5% aqueous CMC, were each intraperitoneally administered to ICR mice in a dose of 0.1 ml per 10 g body weight. LD50 (mg/kg) value of each test compound was calculated from the mortality of mice during 30 days by the Behrens-Karber method.

Ehrlich acites carcinoma = assay: Growth-inhibiting effect against Ehrlich acites carcinoma; format: in vivo, male mice; details: Mus musculus, Ehrlich, 120 h, 5 days; for response vs control in vivo at 25 mg/kg: 25 mg/kg/day ip; for response vs control in vivo at 100 mg/kg: 100 mg/kg/day ip
Method in brief: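 Male mice (groups of 6) implanted intraperitoneally with 1×10^7 Ehrlich ascites cells; compounds in 1% Nikkol HCO-60 given i.p. once daily for 5 days starting 24 hrs post-implantation. Total packed cell volume measured at day 7; T/C% vs untreated group, scored - (100-66), + (65-41), ++ (40-11), +++ (10-0).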

Leukemia L1210 = assay: Activity against Leukemia L1210, intraperitoneal, increase in life span of mice; format: in vivo, female mice (BDF1 family); details: for ED (maximum ILS) / ED30: Mus musculus, L1210, ip, ip once a day for 5 successive days; for ED (maximum ILS): daily dosage giving maximum increase of life span, read-out: O.D. (optimum dosage); for ED30: daily dosage increasing average survival days by 30%, read-out: ILS30; for Survivors after 60 days / Max. ILS % / Therapeutic ratio TR: ip; for Survivors after 60 days: 6-membered group; for Max. ILS %: 60-day observation, versus control; for Therapeutic ratio TR: O.D./ILS30
Method in brief: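 Female BDF1 mice (20 to 23 g, 6 per group) implanted ip with 1×10^5 L1210 cells; test compound given ip or orally once daily for 5 days starting 24 h later. ILS% from mean survival days vs untreated controls over 60 days; T.R. = O.D./ILS30.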

SMILES | Urine volume [1] | Cl^- [1] | K^+ [1] | Na^+ [1] | LD50 at 720 h [2] | response vs control in vivo at 25 mg/kg (Ehrlich acites carcinoma; read-out: Activity) | response vs control in vivo at 25 mg/kg (Ehrlich acites carcinoma; read-out: T/C %) | response vs control in vivo at 100 mg/kg (Ehrlich acites carcinoma; read-out: Activity) | response vs control in vivo at 100 mg/kg (Ehrlich acites carcinoma; read-out: T/C %) | ED (maximum ILS) (Leukemia L1210) | ED30 (Leukemia L1210) | Survivors after 60 days (Leukemia L1210) | Max. ILS % (Leukemia L1210) | Therapeutic ratio TR (Leukemia L1210)
COCCN(C(=O)N(CCCl)N=O)C1C(CO)OC(OCC(C)C)C(O)C1O [Compound 93, 3-(2-methoxyethyl)-3-(isobutyl α-D-glucopyranose-4-yl)-1-(2-chloroethyl)-1-nitrosourea] | 9.6 ml/kg/5 hrs. | 0.7 mEq/kg/5 hrs. | 0.9 mEq/kg/5 hrs. | 0.6 mEq/kg/5 hrs. | 530 mg/kg | 0 to 10% | 0% | 0 to 10% | 0% | 160 mg/kg | 4.49 mg/kg | 3/6 | > 370% | 35.6
CCOCCCN(C[C@H]1O[C@H](OC(C)CC)[C@H](O)[C@@H](O)[C@@H]1O)C(=O)N(CCCl)N=O (stereo partly drawn) [Compound 19, 3-(3-ethoxy-n-propyl)-3-(sec-butyl α-D-glucopyranose-6-yl)-1-(2-chloroethyl)-1-nitrosourea] | 9.1 ml/kg/5 hrs. | 0.7 mEq/kg/5 hrs. | 0.8 mEq/kg/5 hrs. | 0.6 mEq/kg/5 hrs. | 560 mg/kg | 0 to 10% | 0% | 0 to 10% | 0% | 180 mg/kg | 3.33 mg/kg | 6/6 | > 700% | 54.0
COCCCN(C(=O)N(CCCl)N=O)C1C(OCC(C)C)OC(CO)C(O)C1O [Compound 74, 3-(3-methoxy-n-propyl)-3-(isobutyl α-D-glucopyranose-2-yl)-1-(2-chloroethyl)-1-nitrosourea] | 9.4 ml/kg/5 hrs. | 0.7 mEq/kg/5 hrs. | 0.8 mEq/kg/5 hrs. | 0.6 mEq/kg/5 hrs. | 560 mg/kg | 0 to 10% | 0% | 0 to 10% | 0% | 170 mg/kg | 3.92 mg/kg | 6/6 | > 700% | 43.2
COC(C)CO[C@H]1O[C@H](CN(CC2CCCO2)C(=O)N(CCCl)N=O)[C@H](O)[C@H](O)[C@H]1O (stereo partly drawn) [Compound 117, 3-tetrahydrofurfuryl-3-(2-methoxy-n-propyl α-D-galactopyranose-6-yl)-1-(2-chloroethyl)-1-nitrosourea] | 8.4 ml/kg/5 hrs. | 0.7 mEq/kg/5 hrs. | 0.9 mEq/kg/5 hrs. | 0.5 mEq/kg/5 hrs. | 610 mg/kg | 0 to 10% | 0% | 0 to 10% | 0% | 200 mg/kg | 3.3 mg/kg | 6/6 | > 700% | 60.6
COC(C)CN(C(=O)N(CCCl)N=O)C1C(O)C(CO)OC(OC2CCCCC2)C1O [Compound 86, 3-(2-methoxy-n-propyl)-3-(cyclohexyl α-D-glucopyranose-3-yl)-1-(2-chloroethyl)-1-nitrosourea] | 10.2 ml/kg/5 hrs. | 0.9 mEq/kg/5 hrs. | 1.0 mEq/kg/5 hrs. | 0.7 mEq/kg/5 hrs. | 695 mg/kg | 0 to 10% | 0% | 0 to 10% | 0% | 200 mg/kg | 4.9 mg/kg | 4/6 | > 430% | 40.8
